Patent US6706757B2, “Chroman derivatives as 5-hydroxytryptamine-6 ligands” (Wyeth, priority 2001, dated 2004)
Counter-ions that a name gives are not always drawn.

Legend:
[1] = target: T1, human cloned 5-HT6 receptors (Homo sapiens, UniProt P50406); assay: 5-HT6 binding affinity, [3H]-LSD displacement on membranes of Hela cells expressing human cloned 5-HT6 receptors; settings: [3H]-LSD 3.0 nM, Hela cell membranes, 120 min at room temperature
T1 construct: expressed in transfected cells; host or cells: HeLa cells (membrane preparation)
T1 sequence (P50406 whole entry): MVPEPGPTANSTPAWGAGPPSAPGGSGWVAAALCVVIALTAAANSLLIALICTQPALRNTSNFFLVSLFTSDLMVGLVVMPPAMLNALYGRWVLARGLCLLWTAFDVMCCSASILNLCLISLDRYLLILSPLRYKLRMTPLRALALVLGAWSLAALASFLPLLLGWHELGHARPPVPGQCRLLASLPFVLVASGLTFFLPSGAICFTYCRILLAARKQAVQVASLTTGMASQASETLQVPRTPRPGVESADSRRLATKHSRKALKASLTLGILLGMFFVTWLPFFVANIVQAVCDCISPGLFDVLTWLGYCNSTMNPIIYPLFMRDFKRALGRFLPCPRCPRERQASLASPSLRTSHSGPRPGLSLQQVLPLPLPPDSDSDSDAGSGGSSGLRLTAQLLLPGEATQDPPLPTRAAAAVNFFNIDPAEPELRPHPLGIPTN
Procedure: The affinity of test compounds for the serotonin 5-HT6 receptor is evaluated in the following manner. Cultured Hela cells expressing human cloned 5-HT6 receptors are harvested and centrifuged at low speed (1,000×g) for 10.0 min to remove the culture media. The harvested cells are suspended in half volume of fresh physiological phosphate buffered saline solution and recentrifuged at the same speed. This operation is repeated. The collected cells are then homogenized in ten volumes of 50 mM Tris.HCl (pH 7.4) and 0.5 mM EDTA. The homogenate is centrifuged at 40,000×g for 30.0 min and the precipitate is collected. The obtained pellet is resuspended in 10 volumes of Tris.HCl buffer and recentrifuged at the same speed. The final pellet is suspended in a small volume of Tris.HCl buffer and the tissue protein content is determined in aliquots of 10-25 μl volumes. Bovine Serum Albumin is used as the standard in the protein determination according to the method described in Lowry et al., J. Biol. Chem., 193:265 (1951). The volume of the suspended cell membranes is adjusted to give a tissue protein concentration of 1.0 mg/ml of suspension. The prepared membrane suspension (10 times concentrated) is aliquoted in 1.0 ml volumes and stored at −70° C. until used in subsequent binding experiments.
Binding experiments are performed in a 96 well microtiter plate format, in a total volume of 200 μl. […] The test compounds are added in 20.0 μl volume.
The reaction is allowed to proceed in the dark for 120 min at room temperature, at which time, the bound ligand-receptor complex is filtered off on a 96 well unifilter with a Packard Filtermate® 196 Harvester. The bound complex caught on the filter disk is allowed to air dry and the radioactivity is measured in a Packard TopCount® equipped with six photomultiplier detectors, after the addition of 40.0 μl Microscint®-20 scintillant to each shallow well. The unifilter plate is heat-sealed and counted in a PackardTopCount® with a tritium efficiency of 31.0%.
Binding in the presence of varying concentrations of test compound is expressed as a percentage of specific binding in the absence of test compound. The results are plotted as log % bound versus log concentration of test compound. […] A linear regression line of data points is plotted, from which the IC50 value is determined and the Ki value is determined based upon the following equation: […]
where L is the concentration of the radioactive ligand used and KD is the dissociation constant of the ligand for the receptor, both expressed in nM.

Row | Structure (SMILES) | melting point | Ki [1] [nM]
1 | C[C@@H](NCC1CCc2ccc(N(C)S(=O)(=O)c3cccc4ccccc34)cc2O1)c1ccccc1 (stereo partly drawn) (as salt: HCl) [Example 55, N-methyl-N-[2-({[(1R)-1-phenylethyl]amino}methyl)-3,4-dihydro-2H-chromen-7-yl]naphthalene-1-sulfonamide] | 245 to 246 °C | 
2 | COc1ccc(S(=O)(=O)N(C)c2ccc3c(c2)OC(CN[C@H](C)c2ccccc2)CC3)cc1OC (stereo partly drawn) (as salt: HCl) [Example 54, 3,4-dimethoxy-N-methyl-N-[2-({[(1R)-1-phenylethyl]amino}methyl)-3,4-dihydro-2H-chromen-7-yl]benzenesulfonamide] | 229 to 230 °C | 
3 | C[C@@H](NCC1CCc2ccc(N(C)S(=O)(=O)c3ccc(F)cc3)cc2O1)c1ccccc1 (stereo partly drawn) (as salt: HCl) [Example 52, 4-fluoro-N-methyl-N-[2-({[(1R)-1-phenylethyl]amino}methyl)-3,4-dihydro-2H-chromen-7-yl]benzenesulfonamide] | 208 to 210 °C | 
4 | C[C@@H](NCC1CCc2ccc(N(C)S(=O)(=O)c3ccc(N)cc3)cc2O1)c1ccccc1 (stereo partly drawn) (as salt: HCl) [Example 56, 4-amino-N-methyl-N-[2-({[(1R)-1-phenylethyl]amino}methyl)-3,4-dihydro-2H-chromen-7-yl]benzenesulfonamide] | 200 °C (dec.) | 
5 | O=S(=O)(Nc1ccc2c(c1)OC(CNCCCO)CC2)c1ccccc1 (centres unmarked) [Example 5, N-{2-[(3-Hydroxypropylamino)-methyl]chroman-7-yl}benzenesulfonamide Hemifumarate salt] |  | 5
6 | O=S(=O)(Nc1ccc2c(c1)OC(CNCc1ccccc1)CC2)c1ccccc1 (centres unmarked) [Example 8, N-{2-[(benzylamino)methyl]-3,4-dihydro-2H-chromen-7-yl}benzenesulfonamide] |  | 2
7 | O=S(=O)(Nc1ccc2c(c1)OC(CNCc1ccc3c(c1)OCO3)CC2)c1ccccc1 (centres unmarked) [Example 11, N-(2-{[(1,3-benzodioxol-5-ylmethyl)amino]methyl}-3,4-dihydro-2H-chromen-7-yl)benzenesulfonamide] |  | 2

Continued, values first:

Row | melting point | Ki [1] [nM] | Structure (SMILES)
8 | 198 to 201 °C |  | C[C@@H](NCC1CCc2ccc(N(C)S(=O)(=O)c3ccc(Cl)cc3)cc2O1)c1ccccc1 (stereo partly drawn) (as salt: HCl) [Example 53, 4-chloro-N-methyl-N-[2-({[(1R)-1-phenylethyl]amino}methyl)-3,4-dihydro-2H-chromen-7-yl]benzenesulfonamide]
9 | 199 to 201 °C |  | C[C@@H](NCC1CCc2ccc(N(C)S(=O)(=O)c3ccccc3Br)cc2O1)c1ccccc1 (stereo partly drawn) (as salt: HCl) [Example 51, 2-bromo-N-methyl-N-[2-({[(1R)-1-phenylethyl]amino}methyl)-3,4-dihydro-2H-chromen-7-yl]benzenesulfonamide]
10 |  | 3 | C[C@@H](NCC1CCc2ccc(NS(=O)(=O)c3c(Cl)nc4sccn34)cc2O1)c1ccccc1 (stereo partly drawn) [Example 33, 6-chloro-N-[2-({[(1R)-1-phenylethyl]amino}methyl)-3,4-dihydro-2H-chromen-7-yl]imidazo[2,1-b][1,3]thiazole-5-sulfonamide]
11 |  | 7 | CC(=O)Nc1nc(C)c(S(=O)(=O)Nc2ccc3c(c2)OC(CN[C@H](C)c2ccccc2)CC3)s1 (stereo partly drawn) [Example 35, N-[4-methyl-5-({[2-({[(1R)-1-phenylethyl]amino}methyl)-3,4-dihydro-2H-chromen-7-yl]amino}sulfonyl)-1,3-thiazol-2-yl]acetamide]
